# Where a name gives a salt, the structure may show the parent alone.
row,melting point [°C],SMILES
1,180,CSc1ccccc1OC[C@@H](O)CN1CCC2(CC1)OCc1c2ccc2c1OCCO2 (as salt: oxalate)
2,198 to 200,O[C@H](COc1ccccc1C1CCCC1)CN1CCC2(CC1)OCc1c2ccc2c1OCCO2 (as salt: oxalate)
3,169 to 171,O[C@H](COc1ccccc1C1CCCC1)CN1CCC2(CC1)OCc1c2ccc2c1OCCCO2 (as salt: oxalate)

# From patent publication US6376505B1, “5-HT1A and 5-HT1Dαdalpha antagonists” (Eli Lilly and Company, priority 1997, dated 2002)
